In brackets after ≈: the same amount, converted by molar mass. Bridge positions count the residues as written; N and C are the ends. Square brackets hold non-standard residues; d marks the D form. Peptide text beside a SMILES is read from it. * marks the point of attachment. Heptanoyl(6-Me) = CC(C)CCCCC(=O)*; Sulfomethyl = O=S(=O)(O)C*; X1 = CC[C@H](C)CCCCC(=O)*; dDap = NC[C@@H](N)C(=O)O; Dab = NCC[C@H](N)C(=O)O; Dap = NC[C@H](N)C(=O)O
Assays:
Assay type in all cases: cell-based
[1] = Nephrotoxicity assay: in vitro cytotoxicity of HK-2 cells by CCK-8 assay; settings: human, HK-2 cells (human renal), 72 h incubation with drug-containing medium
Protocol: In vitro cytotoxicity detection of HK-2 cells was performed by the CCK-8 assay.
The culture medium for human renal HK-2 cells was a complete RPMI-1640 medium (Invitrogen) supplemented with 10% fetal bovine serum (FBS, Gibco). The cryopreservation solution was composed of 90% FBS and 10% dimethyl sulfoxide (DMSO), and the cells were preserved long-term in liquid nitrogen. Cells were cultured in a sterile incubator with a humidified atmosphere containing 5% CO2 at 37°C. When the cell density reached 70%-80%, cell digestion and subculture were conducted. The cyclic lipopeptide compounds prepared in Examples 1-120 were weighed and dissolved in sterile water to prepare a mother solution with a concentration of 1 mg/mL. Drug-containing culture media were then formulated, with the final concentrations set as 500, 250, 200, 100, 50, 25, and 12.5 µg/mL, respectively. Cells were adjusted to a density of 5 × 10^4 cells/mL and seeded into 96-well plates, with 100 µL of cell suspension added to each well. After stable incubation for 24 h, the original medium was replaced with the prepared drug-containing medium, and the plates were incubated in the incubator for an additional 72 h. The medium was gently aspirated, and 100 µL of blank medium containing 10% CCK-8 was added to each well. After incubation in the incubator for 3 h, the optical density (OD) values at 450 nm were measured using a BIOTEK microplate reader. The experiment was repeated three times. For each replicate, polymyxin B was set as the positive drug, and a drug-free blank group was established as the control. The cell viability (%) was calculated by the formula: Cell viability (%) = [(OD of drug-treated group - OD of zero-setting) / (OD of drug-free group - OD of zero-setting)] × 100%. The half-maximal inhibitory concentration (IC50) values were calculated through logarithmic regression analysis.
The cells used for the nephrotoxicity assay were obtained from the ATCC ( American Type Culture Collection). The Cell Counting Kit-8 (CCK-8) used in the assay was supplied by Beyotime Biotechnology Co., Ltd.

[2] = test system: Acinetobacter baumannii ABA19-1; settings: ABA19-1
Protocol: (§1) The minimal inhibitory concentration (MIC) was determined by the broth microdilution method according to the recommended procedures of the Clinical and Laboratory Standards Institute (CLSI).
(§2) An appropriate amount of the cyclic lipopeptide compounds prepared in Examples 1-120 and the reference standards were weighed and dissolved in sterile pure water. An appropriate volume of the mother solution was subjected to ten-fold dilution with sterile Mueller-Hinton (MH) broth to a concentration of 0.256 mg/mL. Half of the drug solution was aliquoted into 96-well reagent reservoirs, while the other half was subjected to two-fold serial dilution with sterile MH broth before being transferred into deep-well reagent reservoirs. The above steps were repeated, so that the drug concentrations in the reagent reservoirs were adjusted to 128, 64, 32, 16, 8, 4, 2, 1, 0.5, 0.25, 0.125 and 0.06 mg/L in sequence, and all solutions were prepared and used immediately. Several colonies were picked from agar plates cultured for 18-24 h and directly suspended in sterile normal saline, and the concentration of the bacterial suspension was adjusted to 0.5 McFarland units. The calibrated bacterial suspension was diluted with MH broth to a concentration of (4-8) × 10^5 colony-forming units per milliliter (CFU/mL) and prepared and used immediately. A volume of 100 µL of the aforementioned compounds of the present disclosure (e.g., the compounds prepared in the examples) and reference solutions at different concentrations was separately pipetted into wells 1 to 12 of sterile 96-well polystyrene plates, and an additional 100 µL of the aforementioned inoculum was added to each well. The final concentrations of the samples in the wells were adjusted to 64, 32, 16, 8, 4, 2, 1, 0.5, 0.25, 0.125, 0.06 and 0.03 mg/L, respectively, and the final concentration of the inoculum in each well was (2-4) × 10^5 CFU/mL. Additional growth control wells were set up, each containing 100 µL of the inoculum and 100 µL of sterile MH broth. The test substances and inocula in all wells were mixed thoroughly and then sealed. The inoculated 96-well plates were incubated in an incubator at 35-37°C for 16-20 h.
(§3) The strains used for the antibacterial activity assay were obtained from the American Type Culture Collection (ATCC) and clinical isolates.
(§4) The strains employed for the antibacterial activity assay included Escherichia coli ATCC BAA-2523, ATCC BAA-2340 (KPC), Klebsiella pneumoniae KPN+19-15, ATCC BAA-1705 (KPC), Pseudomonas aeruginosa PAE19-3, ATCC 27853, Acinetobacter baumannii ABA19-1, and NCTC 13304 (OXA-27).

[3] = test system: Acinetobacter baumannii NCTC 13304 (OXA-27); settings: NCTC 13304
Protocol: as §1, §2, §3, §4

[4] = test system: Pseudomonas aeruginosa PAE19-3; settings: PAE19-3
Protocol: as §1, §2, §3, §4

[5] = test system: Klebsiella pneumoniae ATCC BAA-1705 (KPC); settings: ATCC BAA-1705
Protocol: as §1, §2, §3, §4

[6] = test system: Pseudomonas aeruginosa ATCC 27853; settings: ATCC 27853
Protocol: as §1, §2, §3, §4

[7] = test system: Escherichia coli ATCC BAA-2523; settings: ATCC BAA-2523
Protocol: as §1, §2, §3, §4

[8] = test system: Escherichia coli ATCC BAA-2340 (KPC); settings: ATCC BAA-2340
Protocol: as §1, §2, §3, §4

[9] = test system: Klebsiella pneumoniae KPN+19-15; settings: KPN+19-15
Protocol: as §1, §2, §3, §4

| SMILES | IC50 at 72 h [1] | MIC [2] | MIC [3] | MIC [4] | MIC [5] | MIC [6] | MIC [7] | MIC [8] | MIC [9] |
| --- | --- | --- | --- | --- | --- | --- | --- | --- | --- |
| CC[C@H](C)CCCCC(=O)N[C@@H](CCN)C(=O)N[C@H](C(=O)N[C@H](CN)C(=O)N[C@H]1CCNC(=O)[C@H]([C@@H](C)O)NC(=O)[C@H](CCN)NC(=O)[C@H](CCN)NC(=O)[C@H](CC(C)C)NC(=O)[C@@H](Cc2ccccc2)NC(=O)[C@H](CCN)NC1=O)[C@@H](C)O [Compound 31, (S)-6-methyloctanoyl-Dab-Thr-D-Dap-ring(4-10)[Dab-Dab-D-Phe-Leu-Dab-Dab-Thr]] (X1-[Dab]T[dDap][Dab][Dab][dF]L[Dab][Dab]T; lactam 4-C) | 222 ± 10.2 µg/mL (≈ 186 µM) | 0.03 µg/mL (≈ 0.0252 µM) | 0.03 µg/mL (≈ 0.0252 µM) | 0.25 µg/mL (≈ 0.21 µM) | 0.03 µg/mL (≈ 0.0252 µM) | 0.03 µg/mL (≈ 0.0252 µM) | 0.03 µg/mL (≈ 0.0252 µM) | 0.03 µg/mL (≈ 0.0252 µM) | 0.03 µg/mL (≈ 0.0252 µM) |
| CC(C)CCCCC(=O)N[C@@H](CCN)C(=O)N[C@H](C(=O)N[C@@H](CN)C(=O)N[C@H]1CCNC(=O)[C@H]([C@@H](C)O)NC(=O)[C@H](CCN)NC(=O)[C@H](CCN)NC(=O)[C@H]([C@@H](C)OCS(=O)(=O)O)NC(=O)[C@@H](Cc2ccccc2)NC(=O)[C@H](CCN)NC1=O)[C@@H](C)O [Compound 114, 6-methylheptanoyl-Dab-Thr-Dap-ring(4-10)[Dab-Dab-D-Phe-Thr(CH2SO3H)-Dab-Dab-Thr]] ({Heptanoyl(6-Me)}-[Dab]T[Dap][Dab][Dab][dF]T(Sulfomethyl)[Dab][Dab]T; lactam 4-C) | > 500 µg/mL | 0.06 µg/mL (≈ 0.0477 µM) | 0.06 µg/mL (≈ 0.0477 µM) | 0.25 µg/mL (≈ 0.199 µM) | 0.125 µg/mL (≈ 0.0994 µM) | 0.25 µg/mL (≈ 0.199 µM) | 0.03 µg/mL (≈ 0.0239 µM) | 0.03 µg/mL (≈ 0.0239 µM) | 0.125 µg/mL (≈ 0.0994 µM) |
| CC(C)CCCCC(=O)N[C@@H](CCN)C(=O)N[C@H](C(=O)N[C@H](CO)C(=O)N[C@H]1CCNC(=O)[C@H]([C@@H](C)O)NC(=O)[C@H](CCN)NC(=O)[C@H](CCN)NC(=O)[C@H]([C@@H](C)OCS(=O)(=O)O)NC(=O)[C@@H](Cc2ccccc2)NC(=O)[C@H](CCN)NC1=O)[C@@H](C)O [Compound 105, 6-methylheptanoyl-Dab-Thr-D-Ser-ring(4-10)[Dab-Dab-D-Phe-Thr(CH2SO3H)-Dab-Dab-Thr]] ({Heptanoyl(6-Me)}-[Dab]T[dS][Dab][Dab][dF]T(Sulfomethyl)[Dab][Dab]T; lactam 4-C) | > 500 µg/mL | 0.06 µg/mL (≈ 0.0477 µM) | 0.06 µg/mL (≈ 0.0477 µM) | 0.25 µg/mL (≈ 0.199 µM) | 0.125 µg/mL (≈ 0.0993 µM) | 0.25 µg/mL (≈ 0.199 µM) | 0.03 µg/mL (≈ 0.0238 µM) | 0.03 µg/mL (≈ 0.0238 µM) | 0.125 µg/mL (≈ 0.0993 µM) |
